Data published in patent US20210318318A1, “Kinase Activity In Tumors” (Institute For Cancer Research d/b/a The Research Institute …, priority 2018, published 2021).

Tests used:
Test in all cases: MIB/MS kinome profiling of inhibitor-treated OVSAHO cells
Assay type in all cases: cell-based
Details in all cases: 2 μM, 4 hours
MAP3K12 = target: T1, MAP3K12 (Homo sapiens, UniProt Q12852)
T1 construct: endogenous in cells; host or cells: OVSAHO
T1 sequence (Q12852 1-859): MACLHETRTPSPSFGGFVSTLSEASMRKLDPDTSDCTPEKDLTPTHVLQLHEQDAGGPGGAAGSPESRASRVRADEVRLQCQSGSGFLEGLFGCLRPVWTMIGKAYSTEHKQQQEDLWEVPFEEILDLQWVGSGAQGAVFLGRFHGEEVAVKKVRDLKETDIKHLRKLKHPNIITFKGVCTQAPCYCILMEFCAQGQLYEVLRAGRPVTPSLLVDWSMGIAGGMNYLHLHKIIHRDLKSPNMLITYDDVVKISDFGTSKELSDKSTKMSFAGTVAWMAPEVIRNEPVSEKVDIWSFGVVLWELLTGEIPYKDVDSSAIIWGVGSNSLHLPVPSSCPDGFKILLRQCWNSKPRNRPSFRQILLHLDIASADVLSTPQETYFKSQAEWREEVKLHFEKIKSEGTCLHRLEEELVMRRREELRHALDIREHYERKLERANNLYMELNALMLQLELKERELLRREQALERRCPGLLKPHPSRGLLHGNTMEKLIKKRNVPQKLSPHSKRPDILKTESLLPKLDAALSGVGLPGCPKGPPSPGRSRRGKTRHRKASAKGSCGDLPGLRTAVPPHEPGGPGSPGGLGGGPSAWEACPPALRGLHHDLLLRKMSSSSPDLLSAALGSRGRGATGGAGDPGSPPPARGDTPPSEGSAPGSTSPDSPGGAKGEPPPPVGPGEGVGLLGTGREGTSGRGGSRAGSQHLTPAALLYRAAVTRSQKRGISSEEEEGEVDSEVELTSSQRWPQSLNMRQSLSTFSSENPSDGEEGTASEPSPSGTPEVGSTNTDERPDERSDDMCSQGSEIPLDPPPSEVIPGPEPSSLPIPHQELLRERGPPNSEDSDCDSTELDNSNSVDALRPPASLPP
Method: (§1) OVSAHO cells were treated with 2 μM of inhibitor for 4 hours and analyzed by MIB/MS. Scatterplot depicts difference in kinase MIB-binding of drug treated relative to control DMSO as determined by Students T-test.
(§2) MIB-based kinome profiling was performed on several of these molecules in HGSOC cells to determine kinome-wide inhibition profiles.
(§3) Experiments using MIB/MS were performed as previously described (Duncan et al., Cell, 2012, 149, 307-321; and Kurimchak et al., Cell Reports, 2016, 16, 1273-1286). Briefly, cells or tumors were lysed on ice in buffer containing 50 mM HEPES (pH 7.5), 0.5% Triton X-100, 150 mM NaCl, 1 mM EDTA, 1 mM EGTA, 10 mM sodium fluoride, 2.5 mM sodium orthovanadate, 1× protease inhibitor cocktail (Roche), and 1% each of phosphatase inhibitor cocktails 2 and 3 (Sigma). Particulate was removed by centrifugation of lysates at 13,000 rpm for 10 minutes at 4° C. and filtration through 0.2 μm syringe filters. Protein concentrations were determined by BCA analysis (Thermo). To compare kinome signatures within and across such large sample sizes, a super-SILAC method was designed (Neubert et al., Nat. Meth., 2010, 7, 361-362) consisting of a cocktail of cancer cell lines that encompasses the activity of the “cancer kinome” to be used as a control for individual samples. Five cancer cell lines were selected from the NCI-60 panel (UACC257, MOLT4, COL0205, ACHN and PC3) that differed in their origin, gene expression patterns and mutation status. The cancer cell lines were labeled using SILAC and mixed equally providing a diverse SILAC ([^13C6,^15N4] arginine (Arg^10) and […] (Lys^8)) heavy kinome reference standard (HKS) to be used repeatedly in kinome profiling assays. An equal amount of the HKS was added to the non-labeled sample (cell, tumor or normal tissue) providing a quantitative strategy to compare kinome activity/levels across samples, amongst treatments and, importantly, across time. Endogenous kinases were isolated by flowing lysates over kinase inhibitor-conjugated Sepharose beads (purvalanol B, VI16832, PP58 and CTx-0294885 beads were used) in 10 ml gravity-flow columns. After 2×10 ml column washes in high-salt buffer and 1×10 ml wash in low-salt buffer (containing 50 mM HEPES (pH 7.5), 0.5% Triton X-100, 1 mM EDTA, 1 mM EGTA, and 10 mM sodium fluoride, and 1M NaCl or 150 mM NaCl, respectively), retained kinases were eluted from the column by boiling in 2×500 μL of 0.5% SDS, 0.1 M TrisHCl (pH 6.8), and 1% 2-mercaptoethanol. Eluted peptides were reduced by incubation with 5 mM DTT at 60° C. for 25 minutes, alkylated with 20 mM iodoacetamide at room temperature for 30 minutes in the dark and alkylation was quenched with DTT. Samples were concentrated to approximately 100 μL with Millipore 10 kD cutoff spin concentrators. Detergent was removed by chloroform/methanol extraction, and the protein pellet was resuspended in 100 mM ammonium bicarbonate and digested with sequencing-grade modified trypsin (Promega) overnight at 37° C. […]
(§4) Proteolytic peptides were resuspended in 0.1% formic acid and separated with a Thermo RSLC Ultimate 3000 on a Thermo Easy-Spray C18 PepMap 75 μm×50 cm C-18 2 μm column with a 240 minute gradient of 4-25% acetonitrile with 0.1% formic acid at 300 nL/min and 50° C. Eluted peptides were analyzed by a Thermo Q Exactive plus mass spectrometer utilizing a top 15 methodology in which the 15 most intense peptide precursor ions were subjected to fragmentation. […]

CDK8 = target: T2, CDK8 (Homo sapiens, UniProt P49336)
T2 construct: endogenous in cells; host or cells: OVSAHO
T2 sequence (P49336 whole entry): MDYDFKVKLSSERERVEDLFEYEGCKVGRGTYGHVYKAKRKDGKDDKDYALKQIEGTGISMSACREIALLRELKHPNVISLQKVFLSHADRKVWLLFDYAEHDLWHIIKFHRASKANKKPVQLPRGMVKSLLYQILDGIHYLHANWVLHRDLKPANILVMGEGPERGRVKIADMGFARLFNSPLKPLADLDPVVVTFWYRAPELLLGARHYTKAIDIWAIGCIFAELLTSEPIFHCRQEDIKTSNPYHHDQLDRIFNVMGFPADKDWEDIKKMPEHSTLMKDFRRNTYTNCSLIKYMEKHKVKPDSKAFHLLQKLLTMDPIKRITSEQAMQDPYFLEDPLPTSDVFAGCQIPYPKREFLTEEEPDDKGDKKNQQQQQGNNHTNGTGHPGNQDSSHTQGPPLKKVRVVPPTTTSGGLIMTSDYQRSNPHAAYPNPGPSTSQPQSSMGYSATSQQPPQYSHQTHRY
T2 sequence (P24863 whole entry partner): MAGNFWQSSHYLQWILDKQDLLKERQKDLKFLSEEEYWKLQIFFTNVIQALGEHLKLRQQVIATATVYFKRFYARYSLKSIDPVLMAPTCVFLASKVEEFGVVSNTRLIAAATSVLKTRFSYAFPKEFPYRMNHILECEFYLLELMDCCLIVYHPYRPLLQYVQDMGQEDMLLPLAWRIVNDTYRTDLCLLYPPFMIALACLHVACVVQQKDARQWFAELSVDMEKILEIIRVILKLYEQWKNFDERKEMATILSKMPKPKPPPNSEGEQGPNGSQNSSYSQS
Method: as §1, §2, §3, §4

AAK1 = target: T3, AAK1 (Homo sapiens, UniProt Q2M2I8)
T3 construct: endogenous in cells; host or cells: OVSAHO
T3 sequence (Q2M2I8 whole entry): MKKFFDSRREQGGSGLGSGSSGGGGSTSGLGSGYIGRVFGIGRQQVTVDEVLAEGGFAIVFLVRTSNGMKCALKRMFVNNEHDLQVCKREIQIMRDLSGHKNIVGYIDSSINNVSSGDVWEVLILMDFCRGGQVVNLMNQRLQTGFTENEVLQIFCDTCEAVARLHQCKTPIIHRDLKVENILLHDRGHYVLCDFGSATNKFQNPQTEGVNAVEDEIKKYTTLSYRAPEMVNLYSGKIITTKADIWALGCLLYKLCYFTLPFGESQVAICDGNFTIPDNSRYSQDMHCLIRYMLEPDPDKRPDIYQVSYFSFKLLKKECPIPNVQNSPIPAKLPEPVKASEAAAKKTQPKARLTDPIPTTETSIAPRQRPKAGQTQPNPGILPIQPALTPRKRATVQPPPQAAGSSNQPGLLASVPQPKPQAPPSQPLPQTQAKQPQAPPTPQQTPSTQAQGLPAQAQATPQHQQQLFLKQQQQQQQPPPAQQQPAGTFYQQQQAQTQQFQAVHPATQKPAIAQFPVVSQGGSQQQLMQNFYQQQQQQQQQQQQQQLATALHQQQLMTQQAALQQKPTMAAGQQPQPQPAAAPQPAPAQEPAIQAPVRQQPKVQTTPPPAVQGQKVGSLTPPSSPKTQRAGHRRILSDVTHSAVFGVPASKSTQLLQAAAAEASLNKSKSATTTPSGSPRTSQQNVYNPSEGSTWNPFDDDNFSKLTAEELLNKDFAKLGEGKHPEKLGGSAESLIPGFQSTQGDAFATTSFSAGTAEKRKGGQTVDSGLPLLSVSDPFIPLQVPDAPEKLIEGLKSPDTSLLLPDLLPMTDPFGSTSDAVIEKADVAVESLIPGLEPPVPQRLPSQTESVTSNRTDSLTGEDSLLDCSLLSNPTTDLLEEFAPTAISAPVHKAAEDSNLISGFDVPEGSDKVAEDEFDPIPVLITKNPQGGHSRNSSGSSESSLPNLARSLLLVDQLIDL
Method: as §1, §2, §3, §4

Cc1[nH]nc2ccc(-c3cncc(OC[C@@H](N)Cc4ccccc4)c3)cc12 [A-674563]
inhibited: MIB-binding of MAP3K12 (MAP3K12) | MIB-binding of CDK8 (CDK8) | MIB-binding of AAK1 (AAK1)
